Source: paper PMC3170513 (Neuropeptides, 2011)
Starred links: 1 amine or outer side, 2 acyl side, 3 side chain; linkers in the order of their positions; H or OH if unused. Positions of bridges follow the written chain, without caps; N, C: chain ends. Non-standard residues stand in square brackets, D forms with d. Residues, ends and D or L forms follow the SMILES beside them. Chains are numbered I, II in the order given. Actinocin(9to1) = Cc1c2oc3c(C)ccc(C(=O)[*:1])c3nc-2c(C(=O)[*:2])c(N)c1=O; NMeV = CN[C@H](C(=O)O)C(C)C; Sar = CNCC(=O)O

Legend:
[1] = system: 125I-CART 61-102 specific binding in PC12 cells; experiment: Effect of differentiation; assay type: cell-based, Rat; conditions: 5 nM radioligand; for effect of inhibitors on specific binding, undifferentiated cells: undifferentiated PC12 cells, 6 hours, CHX 10 ug/ml, ActiD 2 mM, CytoD 4 mM, n=3 – 5
[2] = system: CART binding in nucleus accumbens neurons; conditions: primary cell cultures; ref Jones and Kuhar, 2008; cited from earlier work
[3] = system: ERK signaling in AtT20 cells; conditions: ref Lakatos et al., 2005; cited from earlier work
[4] = system: phospho-ERK in PC12 cells; experiment: ERK activation; assay type: cell-based, Rat; conditions: for inhibition of CART-induced phospho-ERK (general, in words): pertussis toxin
[5] = system: voltage dependant Ca++ signaling in hippocampal cells; conditions: hippocampal cells in culture; ref Yermolaieva et al., 2001; cited from earlier work
[6] = system: CART binding in PC12 cells; conditions: ref Maixnerova et al., 2007, Maletinska et al.; cited from earlier work

## Cc1c2oc3c(C)ccc(C(=O)N[C@@H]4C(=O)N[C@H](C(C)C)C(=O)N5CCC[C@H]5C(=O)N(C)CC(=O)N(C)[C@@H](C(C)C)C(=O)O[C@@H]4C)c3nc-2c(C(=O)N[C@@H]2C(=O)N[C@H](C(C)C)C(=O)N3CCC[C@H]3C(=O)N(C)CC(=O)N(C)[C@@H](C(C)C)C(=O)O[C@@H]2C)c(N)c1=O [ActiD, Actinomycin D] (I: T[dV]P[Sar][NMeV] / II: T[dV]P[Sar][NMeV]; ester I:1-I:C, II:1-II:C; linker I:N-II:N via Actinocin(9to1))
[1]
  effect of inhibitors on specific binding, undifferentiated cells: none of the inhibitors had any effects

## C[C@@H]1C[C@@H]([C@H](O)CC2CC(=O)NC(=O)C2)C(=O)[C@@H](C)C1 [CHX, Cycloheximide]
[1]
  effect of inhibitors on specific binding, undifferentiated cells: none of the inhibitors had any effects

## C=C1[C@@H](C)[C@H]2[C@H](Cc3ccccc3)NC(=O)[C@]23[C@H](OC(C)=O)/C=C/[C@@](C)(O)C(=O)[C@@H](C)C/C=C/[C@H]3[C@@H]1O [CytoD, Cytochalasin D]
[1]
  effect of inhibitors on specific binding, undifferentiated cells: none of the inhibitors had any effects

## Nc1nc2c(ncn2[C@@H]2O[C@H](COP(=O)(O)OP(=O)(O)OP(=O)(O)O)[C@@H](O)[C@H]2O)c(=O)[nH]1 [GTP]
[2]
  specific binding in nucleus accumbens neurons and effect of nucleotides on it: reduced the binding of CART peptide

## Pertussin Toxin [PTX]
[3]
  ERK signaling in AtT20 cells: reduced
[4]; PC12 cells
  inhibition of CART-induced phospho-ERK (general, in words): reduced
[4]; PC12 cells, listed as pertussis toxin
  inhibition of CART-induced phospho-ERK (general, in words): blocked
[4]; PTX 200ng/m, at least 16 hrs, N 3 days, CART 61-102 0.3 µM
  inhibition of CART-induced phospho-ERK, N-differentiated cells: prevented
[4]; PTX 200ng/m, at least 16 hrs, N + P 3 days, CART 61-102 0.3 µM
  inhibition of CART-induced phospho-ERK, N + P-differentiated cells: inhibited
[4]; PTX 200ng/m, at least 16 hrs, undifferentiated PC12 cells, CART 0.3 µM
  inhibition of CART-induced phospho-ERK, undifferentiated cells: inhibited
[4]; PTX alone vs control, PC12 cells
  effect of PTX alone on phospho-ERK: no inhibitory effect compared to control
[5]
  effect on voltage dependant Ca++ signaling: blocked

B1: Nerve Growth Factor 2.5S (protein, UniProt P01139 122-241, looked up)
Beta-nerve growth factor: SSTHPVFHMGEFSVCDSVSVWVGDKTTATDIKGKEVTVLAEVNINNSVFRQYFFETKCRASNPVESGCRGIDSKHWNSYCTTTHTFVKALTTDEKQAAWRFIRIDTACVCVLSRKATRRG
modifications: Beta-nerve growth factor
[4]; acute treatment, undifferentiated and differentiated PC12 cells, data not shown
  phospho-ERK stimulation, positive controls: increased ERK phosphorylation
[1]; NGF 50ng/mL and/or PACAP 100nM, 1, 2, 3 days, N = 3 – 5
  change of specific 125I-CART 61-102 binding over 1-3 days of differentiation: increased
[6]
  specific binding in PC12 cells: increased after differentiation
